The source made the active and inactive calls. The rule behind the calls is not given here.

The data set relates to CCRIS mutagenicity, Ames/micronucleus/aberration tests. The experiment in a line: CCRIS mutagenicity studies.

Consider `C[Si](C)(C)O[Si](C)(C)O[Si](C)(C)C`, for which the mutagenic call was “inactive; negative” (Test System: AMES SALMONELLA TYPHIMURIUM, Strain/Indicator: TA98, Metabolic Activation: HAMSTER, LIVER, S-9, AROCLOR 1254, Method: STANDARD PLATE); “inactive; negative” (Test System: AMES SALMONELLA TYPHIMURIUM, Strain/Indicator: TA98, Metabolic Activation: NONE, Method: STANDARD PLATE); “inactive; negative” (Test System: AMES SALMONELLA TYPHIMURIUM, Strain/Indicator: TA98, Metabolic Activation: RAT, LIVER, S-9, AROCLOR 1254, Method: STANDARD PLATE); “inactive; negative” (Test System: AMES SALMONELLA TYPHIMURIUM, Strain/Indicator: TA100, Metabolic Activation: HAMSTER, LIVER, S-9, AROCLOR 1254, Method: STANDARD PLATE); “inactive; negative” (Test System: AMES SALMONELLA TYPHIMURIUM, Strain/Indicator: TA100, Metabolic Activation: NONE, Method: STANDARD PLATE); “inactive; negative” (Test System: AMES SALMONELLA TYPHIMURIUM, Strain/Indicator: TA100, Metabolic Activation: RAT, LIVER, S-9, AROCLOR 1254, Method: STANDARD PLATE). For the same compound, the mutagenic call was “inactive; negative” (Test System: AMES SALMONELLA TYPHIMURIUM, Strain/Indicator: TA1535, Metabolic Activation: HAMSTER, LIVER, S-9, AROCLOR 1254, Method: STANDARD PLATE); “inactive; negative” (Test System: AMES SALMONELLA TYPHIMURIUM, Strain/Indicator: TA1535, Metabolic Activation: NONE, Method: STANDARD PLATE); “inactive; negative” (Test System: AMES SALMONELLA TYPHIMURIUM, Strain/Indicator: TA1535, Metabolic Activation: RAT, LIVER, S-9, AROCLOR 1254, Method: STANDARD PLATE); “inactive; negative” (Test System: AMES SALMONELLA TYPHIMURIUM, Strain/Indicator: TA1537, Metabolic Activation: HAMSTER, LIVER, S-9, AROCLOR 1254, Method: STANDARD PLATE); “inactive; negative” (Test System: AMES SALMONELLA TYPHIMURIUM, Strain/Indicator: TA1537, Metabolic Activation: NONE, Method: STANDARD PLATE); “inactive; negative” (Test System: AMES SALMONELLA TYPHIMURIUM, Strain/Indicator: TA1537, Metabolic Activation: RAT, LIVER, S-9, AROCLOR 1254, Method: STANDARD PLATE). Also, the mutagenic call (Test System: AMES SALMONELLA TYPHIMURIUM, Strain/Indicator: TA1538, Metabolic Activation: HAMSTER, LIVER, S-9, AROCLOR 1254, Method: STANDARD PLATE) is “inactive; negative”; the mutagenic call (Test System: AMES SALMONELLA TYPHIMURIUM, Strain/Indicator: TA1538, Metabolic Activation: NONE, Method: STANDARD PLATE) was “inactive; negative”; the mutagenic call (Test System: AMES SALMONELLA TYPHIMURIUM, Strain/Indicator: TA1538, Metabolic Activation: RAT, LIVER, S-9, AROCLOR 1254, Method: STANDARD PLATE) was “inactive; negative”; the mutagenic call (Test System: E. COLI, Strain/Indicator: WP2, Metabolic Activation: NONE, Method: STANDARD PLATE) is “inactive; negative”; the mutagenic call (Test System: E. COLI, Strain/Indicator: WP2, Metabolic Activation: RAT, LIVER, S-9, AROCLOR 1254, Method: STANDARD PLATE) was “inactive; negative”; the mutagenic call (Test System: MOUSE LYMPHOMA, Strain/Indicator: L5178Y (TK+/TK-), Metabolic Activation: NONE, Method: SUSPENSION/PLATE) is “active; positive. reevaluation of results: positive”. Moreover, under “Test System: MOUSE LYMPHOMA, Strain/Indicator: L5178Y (TK+/TK-), Metabolic Activation: RAT, LIVER, S-9, AROCLOR 1254, Method: SUSPENSION/PLATE”, the mutagenic call was “inactive; negative. reevaluation of results: negative”.
